What is called inhibition in vivo is how much of the control response was suppressed. Higher therefore signals strong suppression.

Molecules are shown by their SMILES.

This note sets out measurements from patent US4730060A, “Carbacyclin derivatives, method of manufacturing the same and therapeutic agents containing these compounds” (Kotobuki Seiyaku Co. Ltd., priority 1986, dated 1988).

In the first data set the test system is ethanol-induced ulcer. Put plainly: Anti-ulcer activities, ethanol-induced ulcer. The data set is classed as in vivo. The note with it: po, 1 h; rat, perorally, dose 10 μg/kg, 30 min before ethanol. The protocol:
1. Anti-ulcer activities, Ethanol-induced ulcer
Inhibitory effects of ethanol-induced ulcer are determined by the method of A. Robert (Gastroenterology 77, 433-43). Rats are fasted for 24 hrs. and are given 1 ml of absolute ethanol perorally. 1 hour after administration of ethanol, the stomach of the rat is removed. The length of each ulcer occurring in the grandulor stomach is determined and each ulcer in one rat is acounted as ulcer-index. The test compounds are given perorally 30 minutes before ethanol administration.
With `O=C(O)CCCC=C1C[C@H]2C[C@@H](O)[C@H](/C=C/[C@@H](O)C3COc4ccccc4O3)[C@H]2C1` (stereo partly drawn) [Compound 5, 15α-Hydroxy-15-(benzodioxane-2-yl)-carbacyclin], 0.01 mg/kg produced 71.9% inhibition in vivo.
Same read-out and setting: for `CC1([C@H](O)/C=C/[C@@H]2[C@H]3CC(CCOCC(=O)O)=C[C@H]3C[C@H]2O)Cc2ccccc2C1` [Compound 41, 15α-Hydroxy-15-(2-methylindan-2-yl)-3-oxa-isocarbacyclin] the value was 64.2%.
The same measure, in the same setting: in the case of `O=C(O)COCCC1=C[C@H]2C[C@@H](O)[C@H](/C=C/[C@@H](O)C3COc4ccccc4O3)[C@H]2C1` (stereo partly drawn) [Compound 45, 15α-Hydroxy-15-(1,4-benzodioxane-2-yl)-3-oxa-isocarbacyclin] it was 58.9%.

Still in this data set, the particulars now being: po, 1 h; rat, perorally, dose 30 μg/kg, 30 min before ethanol.
With `O=C(O)CCCC=C1C[C@H]2C[C@@H](O)[C@H](C#C[C@@H](O)C3Cc4ccccc4C3)[C@H]2C1` [Compound 3, 13,14-Dehydro-15α-hydroxy-15-(indan-2-yl)-carbacyclin], the inhibition in vivo at 0.03 mg/kg was found to be 93.4%.
In turn, `COc1ccc2c(c1)OCC([C@H](O)/C=C/[C@@H]1[C@H]3CC(=CCCCC(=O)O)C[C@H]3C[C@H]1O)O2` (stereo partly drawn) [Compound 11, 15α-Hydroxy-15-(6-methoxybenzodioxane-2-yl)-carbacyclin] returned an inhibition in vivo at 0.03 mg/kg of 82.1%.
The same measure, in the same setting: in the case of `CC1([C@H](O)/C=C/[C@@H]2[C@H]3CC(=CCOCC(=O)O)C[C@H]3C[C@H]2O)Cc2ccccc2C1` [Compound 33, 15α-Hydroxy-15-(2-methylindan-2-yl)-3-oxa-carbacyclin] it was 47.6%.
Same read-out and setting: for `O=C(O)COCC=C1C[C@H]2C[C@@H](O)[C@H](/C=C/[C@@H](O)C3Cc4ccccc4C3)[C@H]2C1` [Compound 35, 15α-Hydroxy-15-(indan-2-yl)-3-oxa-carbacyclin] the value was 44.6%.

The data set is the same for the next values; noted with them: po, 1 h; rat, perorally, dose 100 μg/kg, 30 min before ethanol.
As to `O=C(O)CCCC=C1C[C@H]2C[C@@H](O)[C@H](/C=C/[C@@H](O)c3ccc4c(c3)OCCO4)[C@H]2C1` [Compound 1, 15α-Hydroxy-15-(benzodioxane-6-yl)-carbacyclin], the inhibition in vivo at 0.1 mg/kg is 41.6%.
On the same count and under the same terms, in the case of `O=C(O)CCCC=C1C[C@H]2C[C@@H](O)[C@H](/C=C/[C@@H](O)C3Cc4ccccc4C3)[C@H]2C1` [Compound 7, 15α-Hydroxy-15-(indan-2-yl)-carbacyclin] it was 68.7%; in that of `CC1([C@H](O)/C=C/[C@@H]2[C@H]3CC(=CCCCC(=O)O)C[C@H]3C[C@H]2O)COc2ccccc2O1` (stereo partly drawn) [Compound 17, 15β-Hydroxy-15-(2-methylbenzodioxane-2-yl)-carbacyclin], 72.6%; in that of `O=C(O)COCC=C1C[C@H]2C[C@@H](O)[C@H](/C=C/[C@@H](O)C3COc4ccccc4O3)[C@H]2C1` (stereo partly drawn) [Compound 37, 15α-Hydroxy-15-(1,4-benzodioxane-2-yl)-3-oxa-carbacyclin], 51.6%.
The same measure, in the same setting: for `O=C(O)COCCC1=C[C@H]2C[C@@H](O)[C@H](/C=C/[C@@H](O)C3Cc4ccccc4C3)[C@H]2C1` [Compound 43, 15α-Hydroxy-15-(indan-2-yl)-3-oxa-isocarbacyclin] the value was 51.8%.

Still in this data set, the particulars now being: po, 1 h; rat, perorally, dose 300 μg/kg, 30 min before ethanol.
For `Cc1ccc2c(c1)OCC([C@H](O)/C=C/[C@@H]1[C@H]3CC(=CCCCC(=O)O)C[C@H]3C[C@H]1O)O2` (stereo partly drawn) [Compound 9, 15α-Hydroxy-15-(6-methylbenzodioxane-2-yl)-carbacyclin], the inhibition in vivo at 0.3 mg/kg was 80.6%.
Same read-out and setting: for `O=C(O)CCCC=C1C[C@H]2C[C@@H](O)[C@H](/C=C/[C@@H](O)C3Cc4ccc([N+](=O)[O-])cc4C3)[C@H]2C1` (stereo partly drawn) [Compound 23, 15α-Hydroxy-15-(5-nitroindan-2-yl)-carbacyclin] the value was 98.9%.

Tested on in the next data set: not listed separately
Put plainly: Stability test in buffer solutions, by thin layer chromatography. The class given is physicochemical. To be noted: pH 7.4, room temperature, 2 months. Here is the method:
About 1.5 mg of test compound was dissolved in a drop of methanol and diluted in each 1.5 ml of a buffer solution *adjusted to pH 5.2, 7.2, 7.4, 9.2, respectively. Stability test was carried out at 37° C. in the case of pH 5.2, 7.2, 9.2 and at room temperature in the case of pH 7.4,.
Using a thin layer chromatography as the identification method, the test solution in each buffer solution of pH 5.2, 7.2, 7.4 was extracted with ethyl acetate and in the case of the test solution of […], it was diluted with water, acidified at pH 4 with 10% HCl and extracted with ethyl acetate.
*pH 5.2 (0.2M Pottasium hydrogen phthalate)
Turning to `O=C(O)CCCC=C1C[C@H]2C[C@@H](O)[C@H](/C=C/[C@@H](O)C3COc4ccccc4O3)[C@H]2C1` (stereo partly drawn) [Compound 5, 15α-Hydroxy-15-(benzodioxane-2-yl)-carbacyclin], the “Stability (change in thin layer chromatography)” value was “No change”.
